Holding throughout (assay): NCI tumour cell line growth inhibition, 48 h
Assay [1] concerns IGROV1 ovarian.
Assay [2] concerns SF-295 CNS.
In assay [3] the test system is NCI-H460 lung.
The test system of assay [4] is UO-31 renal.
The subject of assay [5] is SK-MEL-28 melanoma.
The subject of assay [6] is 786-0 renal.
The subject of assay [7] is MOLT-4 leukemia.
The test system of assay [8] is MALME-3M melanoma.
For assay [9], the system named is ACHN renal.
For assay [10], the system named is MCF7 breast.
The subject of assay [11] is SR leukemia.

In brackets after ≈: the same amount, converted by molar mass. Several values for one entry are separate records, joined by “and”; a condition that tells them apart may be missing. Equal values may be shown once.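 Test compounds were applied to cells in 96-well plates for 48 hours at 5 doses. At the GI50, growth is halved. TGI: concentration producing complete growth inhibition.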

Turning to `CCn1cnc2c(NC(C)=O)ncnc21`, the TGI in assay [1], in [2], in assay [3], in assay [4], in [5] and in assay [6] was more than 100 µM throughout. The TGI in assay [7], in [8], in [9] and in [10] was more than 100 µM throughout.

Take `c1ccc2c(c1)C(=Nc1ccc(N=C3c4ccccc4-c4ccccc43)cc1)c1ccccc1-2`: the TGI in assay [1], in assay [2], in assay [3], in assay [4], in assay [6] and in assay [7] was more than 100 µM in each case. Moreover, the TGI in assay [8] and in [10] was more than 100 µM in each case.

For `NC(N)=Nc1nc2ccccc2[nH]1`, the GI50 in assay [1] was 23.7 µg/mL; in [2] it was 34.4 µg/mL; in [3], 36.5 µg/mL (≈ 209 µM); in assay [4] it was 20 µg/mL (≈ 114 µM); in [5] it was 135 µg/mL (≈ 769 µM); in assay [7], 5.03 µg/mL. Moreover, the values for the GI50 in assay [8] and in assay [10] were 47.4 µg/mL and 1.05 µg/mL (≈ 6.01 µM), respectively. Besides, the TGI in assay [1] is more than 150 µg/mL; in [2] it was 111 µg/mL; in [3], more than 150 µg/mL; in assay [4], 107 µg/mL; in assay [5] it was more than 150 µg/mL; in [7] it was 37.3 µg/mL. In addition, the TGI in assay [8] was found to be 47.4 µg/mL; in [10] it was 79.4 µg/mL.

Turning to `[N-]=[N+]=NC1=C(c2ccccc2)C(=O)c2cccc3cccc1c23`, the TGI in assay [1] is 95.2 µM; in [2], 26.5 µM; in assay [3], 28.7 µM; in assay [4], more than 100 µM; in assay [5] it was more than 100 µM; in assay [6], 88.1 µM. Further, the TGI is 21.1 µM in assay [7], more than 100 µM in [11], more than 100 µM in assay [8] and more than 100 µM in assay [10].

On to `CCNc1ncnc2n[nH]nc12`, for which the TGI in [1], in assay [2], in [4], in assay [5], in [6] and in [7] was more than 100 µM throughout. Also, the TGI in assay [8], in assay [9] and in assay [10] was more than 100 µM each time.

With `O=C1C[C@H]2[C@H](c3ccc(Br)cc3)[C@H]3C(=O)c4ccccc4NC(=O)[C@@H]3[C@@]2(O)c2ccccc2N1`, the TGI is 33.4 µM in assay [1]; more than 100 µM in assay [2]; more than 100 µM in [3]; more than 100 µM in [5]; 99.2 µM in assay [6]; 25 µM in assay [7]. Further, the TGI in assay [11] came out at 90.8 µM; in assay [8], 45.5 µM; in [9] it was 97.7 µM; in assay [10], 77.2 µM.

For `COc1cc([C@@H]2c3cc4c(c(O)c3C[C@H]3COC(=O)[C@@H]32)OCO4)cc(OC)c1O`, the GI50 in [1] is 0.00276 µM; in assay [2], 0.00304 µM; in [7] it was 0.00384 µM and 0.0274 µM; in [8] it was 0.00116 µM. Besides, the TGI in [1] is more than 128 µM; in [2] it was less than 0.02 µM; in assay [4], more than 77.7 µM; in assay [5], more than 200 µM; in assay [7], 0.0374 µM; in assay [10] it was more than 200 µM.

In the case of `COc1cc(OC)nc(Nc2c(C#N)c3nc4ccccc4n3c3ccccc23)n1`, the TGI is more than 100 µM in assay [1]; 53 µM in assay [2]; more than 100 µM in assay [3]; more than 100 µM in assay [4]; more than 100 µM in assay [5]; 43.6 µM in [6]. Further, the TGI in assay [7] was more than 100 µM; in [9] it was 50.1 µM; in [10], more than 100 µM.

As for `CCc1n[nH]c(=O)n1NC(=O)/C=C\C(=O)O`, the TGI in [1], in [2], in assay [3], in assay [6], in assay [7] and in assay [11] was more than 100 µM in each case. In addition, the TGI in assay [8] and in assay [10] was more than 100 µM each time.

Regarding `CC[C@@]1(O)C(=O)OCc2c1cc1n(c2=O)Cc2c-1nc1ccccc1c2/C=N\NC(=O)C(C)N` (stereo partly specified), the TGI in [1] was more than 100 µM; in assay [2] it was 8.14 µM; in assay [3], 4.47 µM; in assay [4], 2.12 µM; in [5], more than 100 µM; in [6], 2 µM. Besides, the TGI in assay [7] was 2.08 µM; in [11] it was 0.119 µM; in assay [8], more than 91.9 µM; in assay [10] it was more than 66.9 µM.

On to `Cc1c2cccc-2c(OCCO)cc2c1[nH]c1ccccc12`, for which the TGI was 8.92 µM in [1]; 14.7 µM in assay [2]; 18.3 µM in [3]; 3.09 µM in [4]; 20.6 µM in assay [5]; 7.14 µM in [6]. Further, the TGI in assay [7] was 20.1 µM; in [8] it was 3.49 µM; in assay [9] it was 2.72 µM; in [10], 19.4 µM.

Turning to `COc1cccc(-n2c(N)c(-c3nc4cc(C(F)(F)F)ccc4s3)c3ccc([N+](=O)[O-])cc3c2=O)c1`, the TGI in [2], in assay [3], in assay [4], in assay [5], in [6] and in assay [7] was more than 100 µM in each case. Further, the TGI in assay [8], in [9] and in assay [10] was more than 100 µM each time.

For `Cc1nc2c(ncn2CCO)c(=O)[nH]1`, the TGI in [1], in assay [2], in assay [3], in [5], in assay [6] and in assay [11] was more than 100 µM throughout. Besides, the TGI in [8], in assay [9] and in [10] was more than 100 µM throughout.

As for `CC(NC(=O)C(N)CC(=O)O)NC(=O)N1CCCC1` (stereo unspecified), the TGI in [1], in [2], in assay [3], in assay [4], in assay [5] and in assay [6] was more than 100 µM each time. For the same molecule, the TGI in [7], in [8], in assay [9] and in [10] was more than 100 µM each time.

Consider `O=C1NN(c2ccccc2)C(=O)C2C3c4ccccc4C(c4ccccc43)C12` (stereo unspecified), for which the TGI in assay [1], in assay [2], in [3], in [4], in [5] and in assay [6] was more than 100 µM each time. The TGI in assay [11], in assay [8], in assay [9] and in assay [10] was more than 100 µM throughout.

On to `Cn1cnc([N+](=O)[O-])c1Sc1nc(N)nc2c1ncn2Cc1ccccc1`, for which the TGI in assay [1] is more than 100 µM; in assay [2], more than 100 µM; in [3] it was 34.7 µM; in assay [4], 34.2 µM; in assay [5], 42.5 µM; in assay [6] it was 68.2 µM. Further, the TGI in assay [11] is more than 100 µM; in [8], 30.8 µM; in [9] it was 31.3 µM; in [10], more than 100 µM.

Consider `COC(=O)c1scc(N)c1-n1ccc(=O)[nH]c1=O`, for which the TGI in assay [1], in assay [3], in assay [4], in [5], in assay [6] and in assay [7] was more than 100 µM in each case. Further, the TGI in assay [11], in [8], in assay [9] and in assay [10] was more than 100 µM throughout.

For `CCCCOC(=O)C1CN2C(=NC1(C(F)(F)F)C(F)(F)F)Sc1ccccc12` (stereo unspecified), the TGI in assay [1], in [2], in assay [3], in [4], in assay [5] and in assay [6] was more than 100 µM throughout. Besides, the TGI is 84.6 µM in [7], more than 100 µM in assay [8], more than 100 µM in [9] and more than 100 µM in assay [10].

Turning to `Cc1cc2[nH]c3c(C#N)c(-c4ccccc4)c(CN4CCOCC4)c(=O)n3c2cc1C`, the TGI in assay [2], in assay [3], in assay [4], in assay [5], in assay [6] and in assay [8] was more than 100 µM in each case. Also, the TGI in assay [9] and in assay [10] was more than 100 µM in each case.

Turning to `CC1(C)C2CCC1(CC(=O)O)C(Cl)C2` (stereo unspecified), the TGI in [1], in assay [2], in [3], in assay [4], in assay [5] and in assay [6] was more than 100 µM in each case. The TGI in assay [7], in [8], in assay [9] and in [10] was more than 100 µM each time.

Turning to `CN1CCN(c2ccc(-n3cc(C(=O)O)c(=O)c4cc(F)c(N5CCN(C)CC5)cc43)nc2)CC1`, the TGI in assay [1], in [2], in assay [3], in assay [4], in assay [5] and in [6] was more than 100 µM in each case. Moreover, the TGI in assay [7], in [11], in [8] and in assay [10] was more than 100 µM in each case.

As to `OCSc1nn(CO)c(=S)s1`, the TGI in assay [1] was determined as 47.8 µM; in assay [2] it was 71.9 µM; in assay [3], 54.5 µM; in assay [5], 49.9 µM; in assay [6], 58.9 µM; in assay [7] it was 51.6 µM. Also, the TGI was determined as 11.9 µM in [11], 44.8 µM in [8], 68.1 µM in assay [9] and 35.9 µM in assay [10].

In the case of `COC(=O)[C@@H]1C[C@]2(CC=C(C)C)c3ccccc3N(S(=O)(=O)c3ccccc3)[C@@H]2N1C(=O)OC`, the TGI is more than 100 µM in assay [2]; 94 µM in assay [3]; more than 100 µM in [4]; more than 100 µM in assay [5]; more than 100 µM in [6]; more than 100 µM in assay [7]. The TGI was 99.3 µM in assay [11], more than 100 µM in assay [8], more than 100 µM in assay [9] and 48.5 µM in [10].

As for `CC(C)=CCC[C@H](C)[C@H]1CC[C@@H](C)c2cc(O)c(C)cc21`, the TGI in assay [1] came to 31.4 µM; in assay [2], 32.2 µM; in assay [3] it was 33.7 µM; in assay [4], 28.2 µM; in [5] it was 36.8 µM; in [6] it was 33.3 µM. Further, the TGI was 51 µM in [7], 33.4 µM in assay [8], 30.6 µM in assay [9] and 32.5 µM in [10].

As to `O=C(/C(=C/c1cccs1)c1ccccc1)c1ccccc1`, the TGI in assay [1], in [2], in [3], in [4], in [5] and in [6] was more than 100 µM in each case. Besides, the TGI in assay [7], in assay [11], in assay [9] and in [10] was more than 100 µM in each case.

On to `NC(CCCCNC(=O)C(Cc1ccccc1)NC(=O)OCc1ccccc1)C(=O)NC(CCCCNC(=O)C(Cc1ccccc1)NC(=O)OCc1ccccc1)C(=O)NC(CCCCNC(=O)C(Cc1ccccc1)NC(=O)OCc1ccccc1)C(=O)NC(CCCCNC(=O)C(Cc1ccccc1)NC(=O)OCc1ccccc1)C(=O)NC(CCCCNC(=O)C(Cc1ccccc1)NC(=O)OCc1ccccc1)C(=O)NC(CCCCNC(=O)C(Cc1ccccc1)NC(=O)OCc1ccccc1)C(=O)O` (stereo unspecified), for which the TGI in assay [1], in assay [3], in assay [4], in [5], in assay [6] and in assay [7] was more than 100 µM throughout. In addition, the TGI in [11], in assay [8], in assay [9] and in assay [10] was more than 100 µM each time.
